Literature values, collected in patent publication US5519028A, “Antiviral preparations” (priority 1992, dated 1996).

Test system: viruses of vaccine
Conditions: intracutaneously 200-600 μg or 2.5-500 mg/day; cited from earlier work

CCc1ccc2c3[nH]c4ccccc4c3cc[n+]2c1 [flavopereirine]
appearance and development of vital papules: prevents the appearance and development of vital papules
